From the OPERA property sets (Mansouri et al. 2018) come the findings set out here.

Each structure is given as a SMILES string.

As for `CC(=O)CC(c1ccc([N+](=O)[O-])cc1)c1c(O)c2ccccc2oc1=O` (stereo unspecified), the logP turned out to be 1.98.

On to `CCOC(=O)C=C1NC(=O)C(N2CCCCC2)S1` (stereo unspecified), for which the log partition coefficient (logP) was 2.34.

For the molecule `CC1(C)S[C@@H]2[C@H](NC(=O)[C@H](N)c3ccc(O)cc3)C(=O)N2[C@H]1C(=O)O`, the logP was found to be 0.87.

In the case of `Cc1cc(O)c(N(C)C)nn1`, the logP was 0.24.

On to `CCC(C(=O)OCCc1ccccc1)C(CO)Cc1cncn1C` (stereo unspecified), for which the logP was found to be 2.31.

`CC(=O)O[C@H]1C[C@H](O[C@H]2[C@@H](O)C[C@H](O[C@H]3[C@@H](O)C[C@H](OC4CC[C@@]5(C)[C@H](CC[C@@H]6[C@@H]5CC[C@]5(C)[C@@H](C7=CC(=O)OC7)CC[C@]65O)C4)O[C@@H]3C)O[C@@H]2C)O[C@H](C)[C@H]1O[C@@H]1O[C@H](CO)[C@@H](O)[C@H](O)[C@H]1O` (stereo partly specified): the logP is 1.23.

The molecule `CC1(C)S[C@@H]2[C@H](NC(=O)[C@H](N)c3ccccc3)C(=O)N2[C@H]1C(=O)O` had a logP of 1.35.

Consider `Cn1c([N+](=O)[O-])cnc1COC(N)=O`, for which the logP was -0.38.

The molecule `CCCCSC(=Nc1cccnc1)SCc1ccc(C(C)(C)C)cc1` had a logP of 7.

Molecule `O=C(NN1CC=CCC1)C1CC1` displayed a logP of 1.12.

Molecule `CC(C)c1cccc(C2C(=O)c3ccccc3C2=O)c1` displayed a logP of 4.43.

As for `CCOCCCn1ccc(=O)c(O)c1C`, the logP came out at 0.12.

On to `CCCCCCNC(=O)n1cc(F)c(=O)[nH]c1=O`, for which the lipophilicity (logP) was determined as 2.63.

`CN(Cc1ccc(Br)cc1)N=O`: the log partition coefficient (logP) turned out to be 1.57.

Molecule `Cn1c(S)nnc(-c2ccc(OC(F)(F)F)c(Cl)c2)c1=O` returned a log partition coefficient (logP) of 3.61.

As for `Clc1ccc(-c2ccc(Cl)cc2)cc1`, the lipophilicity (logP) was 5.23.

`CC(=O)n1c(=O)[nH]cc(F)c1=O` gave a log partition coefficient (logP) of -0.34.

In turn, `C=CC(=O)OCCOCCOCCOCCOC(=O)C=C` registered a logP of 1.26.

On to `CCOC(=O)C1(c2ccccc2)CCN(CCC(O)c2ccccc2)CC1` (stereo unspecified), for which the lipophilicity (logP) is 4.04.

The molecule `CN(C)C=C1OC(=O)C(C#N)=C1c1ccccc1` showed a log partition coefficient (logP) of 1.07.

The molecule `N#Cc1ccc(Cl)cc1` showed a logP of 2.47.

`CNC(=O)Oc1cc(C)c(N(C)C)c(C)c1` had a logP of 2.56. This logP and that of the molecule before are within 0.2 log units of each other.

Turning to `Cc1cc(N)ccc1C(=O)O`, the logP amounted to 1.14.

As for `CCC(C(=O)OCc1ccc(C)cc1)C(CO)Cc1cncn1C` (stereo unspecified), the logP was 2.46.

On to `NNC(=O)c1ccc2c(c1)OCO2`, for which the lipophilicity (logP) amounted to 1.16.

`NS(=O)(=O)c1cc2c(cc1F)N=CNS2(=O)=O` came in with a logP of -0.29.

Molecule `Clc1ccc(-c2c(Cl)ccc(Cl)c2Cl)cc1Cl` gave a lipophilicity (logP) of 6.22.

Consider `Cc1[nH]cnc1CSCCNc1[nH]ccc1[N+](=O)[O-]`, for which the logP came to 1.04.

Molecule `COc1cc(S(C)=O)ccc1-c1nc2ncc(N)cc2[nH]1` (stereo unspecified) showed a logP of 0.33.

`CC(C)(C)C(COc1ccc(-c2ccccc2)cc1)OC(=S)n1ccnc1` (stereo unspecified) returned a logP of 6.06.

The molecule `OC(Cn1ccnc1)(c1ccccc1)c1ccc(Br)cc1` (stereo unspecified) showed a logP of 3.35.

For the molecule `CCCCC(=O)CC(=O)CCCC`, the logP is 3.56.

In turn, `COc1ccc(C(=O)CCCC(=O)O)cc1` showed a logP of 1.63.

`O=C(O)c1cc([N+](=O)[O-])cc([N+](=O)[O-])c1O`: the logP came out at 1.71.

As to `CC1c2nc3ccccc3c(=O)n2CN1CCO` (stereo unspecified), the logP stood at 0.46.

In turn, `CCC(C(=O)OCc1ccccc1C)C(CO)Cc1cncn1C` (stereo unspecified) displayed a logP of 2.42.

With `COC1N(C2CC(F)C(CO)O2)C(=O)NC(=O)C1(C)Cl` (stereo unspecified), the logP was determined as 0.18.

Turning to `CCCCc1ccc(OCC(OC(=O)n2ccnc2)C(C)(C)C)cc1` (stereo unspecified), the lipophilicity (logP) was determined as 4.97.

Consider `O=[N+]([O-])c1cnc(N2CCNC2=S)s1`, for which the logP is 1.7.

Turning to `O=C(CCN1CCCCC1)CN1C(=O)CC(c2ccc(Cl)cc2)C1=O` (stereo unspecified), the logP amounted to 2.23.

On to `CCC(=O)OCC1OC(n2cc(I)c(=O)[nH]c2=O)CC1O` (stereo unspecified), for which the logP was 0.68.

In turn, `CCCCCCCS[C@@H]1O[C@H](CO)[C@H](O)[C@H](O)[C@H]1O` displayed a log partition coefficient (logP) of 1.5.

`O=C1CC2(CCCC2)C(=O)N1O`: the log partition coefficient (logP) is -0.26.

In turn, `CCOc1ccc(OCC(OC(=O)n2ccnc2)C(C)(C)C)cc1` (stereo unspecified) gave a lipophilicity (logP) of 3.86.

Molecule `CC(=O)N(C)C1=NC(=O)C(=Cc2ccc([N+](=O)[O-])o2)S1` had a logP of 1.05.

In the case of `O=C(O)CCCCCOc1cccc2ccccc12`, the logP was determined as 4.5.

In turn, `NCc1ccccc1Sc1ccccc1CO` gave a logP of 2.39.

`CCC(C(=O)OCc1ccccc1)C(COC(=O)Cc1ccccc1)Cc1cncn1C` (stereo unspecified): the log partition coefficient (logP) came out at 4.

The molecule `CCCOc1ccc(OCC(OC(=S)n2ccnc2)C(C)(C)C)cc1` (stereo unspecified) gave a log partition coefficient (logP) of 5.03.

In turn, `CCOC(=O)c1ccc(OCC(OC(=O)n2ccnc2)C(C)(C)C)cc1` (stereo unspecified) registered a log partition coefficient (logP) of 4.12.

Molecule `CC(n1ccnc1)C(O)(c1ccc(F)cc1)c1ccc(F)cc1` (stereo unspecified) came in with a logP of 3.13.

`OCCN(CCO)Cc1cccc(COc2ccccc2)c1` showed a logP of 2.33.

As for `CC(=O)Nc1nc(NC(O)CC(O)CO)c(Cl)nc1[N+](=O)[O-]` (stereo unspecified), the log partition coefficient (logP) was -0.66.

`CCCCC(CC)C(=O)N1c2ccc(C)cc2C2CN(C)CCC21` (stereo unspecified) had a lipophilicity (logP) of 4.14.

The molecule `CNC(=O)c1cccc(Oc2ccccc2)c1` had a logP of 2.86.

Turning to `CCn1cc(C(=O)O)c(=O)c2cc(F)c(N3CCNCC3)nc21`, the logP was -0.2.

`CC(=O)O[C@H]1[C@@H](OC(C)=O)C[C@H](O[C@@H]2C(C)O[C@@H](O[C@H]3[C@@H](OC(C)=O)C[C@H](O[C@H]4CC[C@@]5(C)[C@H](CC[C@@H]6[C@@H]5CC[C@]5(C)[C@@H](C7=CC(=O)OC7)[C@@H](OC(C)=O)C[C@]65O)C4)O[C@@H]3C)C[C@@H]2OC(C)=O)O[C@@H]1C` (stereo partly specified) returned a log partition coefficient (logP) of 3.46.

`O=c1c2ccccc2nc2n1CCCCC2` showed a logP of 2.

In the case of `S=C=Nc1cccc(Cl)c1`, the log partition coefficient (logP) was found to be 3.36.

In turn, `CCN(C)C(=O)c1cccc(Oc2ccccc2)c1` showed a logP of 2.98.

In turn, `Nc1ccn(C2OC(CO)CC2F)c(=O)n1` (stereo unspecified) showed a lipophilicity (logP) of -1.18.

For `CCCC(=O)N1CCCC1=O`, the logP was determined as 1.18.

In turn, `CCC1(CC)C(=O)NCC(C)C1=O` (stereo unspecified) gave a log partition coefficient (logP) of 0.78.

As to `O=[N+]([O-])c1ccccc1O[C@@H]1O[C@H](CO)[C@@H](O)[C@H](O)[C@H]1O`, the logP is -0.78.

On to `CCOC(=O)C1=C(C)NC(C)=C(C(=O)OC)C1c1cccc(Cl)c1Cl` (stereo unspecified), for which the logP was found to be 3.86.

On to `Cc1ncc(OP(=O)(O)O)c(CO)c1O`, for which the logP was -0.64.

On to `CC1CCC=C2N(C)C=C(C(N)=O)C(=O)N21` (stereo unspecified), for which the logP came out at 0.12.

With `COc1cccc2c1C(=O)c1c(O)c3c(c(O)c1C2=O)CC(O)(C(C)=O)CC3OC1CC(N(CC#N)CC(=O)O)C(O)C(C)O1` (stereo unspecified), the logP came out at 0.03.

With `NCCCCN`, the log partition coefficient (logP) was -0.7.

Regarding `CCCNC(=O)c1ccco1`, the logP was found to be 1.1.

Regarding `CSc1ccc(OCC(OC(=O)n2ccnc2)C(C)(C)C)cc1` (stereo unspecified), the logP was found to be 4.03.

The molecule `CC(=O)Nc1n[nH]c(C)cc1=O` displayed a logP of -0.89.

Regarding `COC(=O)NC1=NCC(c2ccc(Cl)cc2)N1C` (stereo unspecified), the logP came out at 2.17.

Regarding `CCOP(=S)(OCC)Oc1nc(Cl)c(Cl)cc1Cl`, the logP was determined as 4.96.

Molecule `NS(=O)(=O)c1cc2c(cc1Cl)NC(C(Cl)Cl)NS2(=O)=O` (stereo unspecified) displayed a lipophilicity (logP) of 0.62.

As to `CCC(CC)(C(=O)NC(N)=S)C(=O)OC`, the logP is 1.82.

Regarding `CC(=O)N1c2ccc(C)cc2C2CN(C)CCC21` (stereo unspecified), the logP stood at 1.25.

`C=CCC(CC=C)(C(=O)NC(N)=O)C(=O)OC`: the lipophilicity (logP) turned out to be 1.37. The logP values of the last two molecules are within 0.2 log units of each other.

Take `CCOCCCn1ccc(=O)c(O)c1CC`: the logP was found to be 0.72.

`CC12CCC(OS(=O)(=O)O)CC1CCC1C2CCC2(C)C(C3=CC(=O)OC3)CCC12O` (stereo unspecified) yielded a logP of -0.14.

`Cc1nnc(C(C)(C)C)c(=O)n1N` gave a logP of 1.03.

`O=C(O)c1cc(O)nc(O)n1` came in with a log partition coefficient (logP) of -0.83.

`CCC1(c2ccccc2)C(=O)NC(=O)N1S(=O)(=O)c1ccccc1` (stereo unspecified) gave a logP of 2.44.

With `CCOC(=O)NC1=NCC(c2ccc(F)cc2)N1C` (stereo unspecified), the lipophilicity (logP) worked out at 1.9.

Consider `Nc1ccc(Cl)cc1Cl`, for which the logP came to 2.78.

Molecule `CC(C)OC(=O)C(C(=O)OC(C)C)=C1SC=CS1` yielded a lipophilicity (logP) of 3.75.

In turn, `Nn1c(S)nnc(-c2cc(Cl)cc(Cl)c2)c1=O` returned a lipophilicity (logP) of 2.67.

Turning to `C=C1C(=O)OC2C1CCC(C)C1(O)CCC(=O)C21C` (stereo unspecified), the logP turned out to be 0.83.

In turn, `COc1cc(N)ccc1C(=O)O` showed a log partition coefficient (logP) of 0.45.

Molecule `CCC(=O)OCOC(=O)c1cn(CC)c2nc(C)ccc2c1=O` returned a lipophilicity (logP) of 1.7.

With `O=C1NC(Cc2ccccc2)C(=O)N1Cc1ccccc1` (stereo unspecified), the log partition coefficient (logP) is 2.84.

`COc1cccc2c1C(=O)c1c(O)c3c(c(O)c1C2=O)CC(O)(C(C)=O)CC3OC1CC(NC(=O)CN(C)C)C(O)C(C)O1` (stereo unspecified) came in with a logP of 1.26.

Take `CC1CCCc2ncc(C(N)=O)c(=O)n21` (stereo unspecified): the logP is 0.04.

As for `CC(=O)NC1=NC(=O)C(=Cc2ccc([N+](=O)[O-])o2)S1`, the logP worked out at 1.03.

As to `COc1ccc2c(c1)[nH]c1c(C)nccc12`, the lipophilicity (logP) was found to be 3.56.

Turning to `CC1c2cccc(O)c2C(=O)C2=C(O)C3(O)C(=O)C(C(N)=O)=C(O)C(N(C)C)C3C(O)C21` (stereo unspecified), the logP is -0.02.

`CC(C)(CN1CCCCC1)C(=O)c1ccccc1` registered a lipophilicity (logP) of 3.78.

Take `CCOC(=O)Cn1cnc(I)c1[N+](=O)[O-]`: the logP came to 0.93.

On to `CCc1c(C)nc2cccc(C)n2c1=O`, for which the log partition coefficient (logP) worked out at 1.86.

On to `CC(N)C(=O)O` (stereo unspecified), for which the logP was -2.85.

For the molecule `COc1c(O)ccc(O)c1OC`, the logP came to 0.61.

`CCOC(=O)c1cnc2n(c1=O)CCCC2` had a logP of 0.15.

`Clc1cccc2cccc(Cl)c12` displayed a logP of 4.3.

For the molecule `Cc1ncc([N+](=O)[O-])n1CC(O)Cn1c([N+](=O)[O-])cnc1C`, the logP was 0.31.

`CCOP(=O)(O)Cc1ccc(F)cc1` showed a logP of 1.25.

In the case of `CC(C)(C)c1ccc(OCC(OC(=O)n2ccnc2)C(C)(C)C)cc1` (stereo unspecified), the logP was 4.82.

`CC(C(=O)O)N(C(=O)c1ccccc1)c1ccc(F)c(Cl)c1` (stereo unspecified) came in with a logP of 2.9.

Turning to `O=C(O)C=Cc1ccc(O)cc1`, the log partition coefficient (logP) came out at 1.46.

`NC1C2CCC1c1cccc(C(F)(F)F)c1C2` (stereo unspecified) registered a log partition coefficient (logP) of 3.65.

For `CC(=O)OCC1=C(C(=O)O)N2C(=O)[C@@H](NC(=O)CSc3ccncc3)[C@H]2SC1`, the log partition coefficient (logP) is -1.15.

`O=C(O)Cc1ccc(C(=O)O)cc1` showed a lipophilicity (logP) of 1.24.

In general, logP refers to the decadic logarithm of the partition coefficient of the neutral form, usually between octanol and water. Low readings indicate a more hydrophilic compound, high ones a more lipophilic compound.
